Test results taken from patent US7217730B2, “Method for the use of pyranoindole derivatives to treat infection with Hepatitis C virus” (Wyeth, priority 2002, dated 2007).
Where two headings read alike, the source gives them in different places.

Biological target: T1, NS5B from the BK strain (genotype 1b) (Hepatitis C virus genotype 1b, UniProt P26663)
T1 construct: NS5B from the BK strain (genotype 1b) is expressed in E. coli as a protein in which the 21 C-terminal amino acids are replaced; made in house; host or cells: E. coli
Experiment: Hepatitis C polymerase inhibition, NS5B BK strain, 33P-GTP filter assay
Format: biochemical
Conditions: for IC50: NS5B BK strain; for inhibition at 20 µM: read-out: HCV pol % inh at 20 μM
Outline: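 Radiolabelled RNA synthesis was measured by filter capture and scintillation counting after EDTA stop. His-tagged, C-terminally truncated (Δ21) genotype 1b BK NS5B from E. coli, pre-exposed to compound for 15 min, copied a self-primed RNA template (~3 nM) with α-[33P]-GTP for 2 h at room temperature.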

[1] = Table 1A, read-out: HCV pol BK IC50

T1 sequence (P26663 2420-2989): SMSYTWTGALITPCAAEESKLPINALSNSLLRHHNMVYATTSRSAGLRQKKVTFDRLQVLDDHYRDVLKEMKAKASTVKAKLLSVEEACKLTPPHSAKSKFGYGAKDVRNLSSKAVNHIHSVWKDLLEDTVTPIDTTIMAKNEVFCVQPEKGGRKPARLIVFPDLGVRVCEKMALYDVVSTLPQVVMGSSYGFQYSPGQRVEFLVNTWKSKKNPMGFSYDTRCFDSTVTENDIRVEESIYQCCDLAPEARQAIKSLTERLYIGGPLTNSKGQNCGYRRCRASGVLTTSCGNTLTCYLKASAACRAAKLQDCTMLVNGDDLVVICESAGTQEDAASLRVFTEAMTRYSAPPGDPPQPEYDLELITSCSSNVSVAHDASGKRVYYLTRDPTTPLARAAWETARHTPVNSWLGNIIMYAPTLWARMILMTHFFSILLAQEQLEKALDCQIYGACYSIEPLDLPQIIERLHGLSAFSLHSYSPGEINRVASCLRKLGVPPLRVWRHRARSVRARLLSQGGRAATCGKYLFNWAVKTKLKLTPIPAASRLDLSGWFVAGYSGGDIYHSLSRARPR

Molecule | HCV pol % inh at 20 μM (Table 1A, 20 μM compound) [%] | IC50 [1] [µM] | inhibition at 20 µM (Table 1A, 20 μM compound) [%] | inhibition at 20 µM [%] | IC50 (Table 1B, read-out: BK IC50) [µM]
(5-cyano-8-fluoro-6-methyl-1-propyl-1,3,4,9-tetrahydropyrano[3,4-b]indol-1-yl)acetic acid [Example 221] | 81 | 0.43 |  |  | 
CCCC1(CC(=O)O)OC(C)Cc2c1[nH]c1c(F)ccc(C#N)c21 (stereo not drawn) [Example 228, (5-cyano-8-fluoro-3-methyl-1-propyl-1,3,4,9-tetrahydropyrano[3,4-b]indol-1-yl)acetic acid] |  | 8.9 |  |  | 
CCCC1(CC(=O)O)OCCc2c1[nH]c1cccc(-c3ccc(Cl)cc3)c21 (stereo not drawn) [Example 34, (5-(4-chlorophenyl)-1-propyl-1,3,4,9-tetrahydropyrano[3,4-b]indol-1-yl]acetic acid] |  | > 20 | 5 |  | 
O=C(O)CC1(c2ccccc2)OCCc2c1[nH]c1c(Cl)ccc(C(F)(F)F)c21 (stereo not drawn) [Example 135, [8-chloro-1-phenyl-5-(trifluoromethyl)-1,3,4,9-tetrahydropyrano[3,4-b]indol-1-yl]acetic acid] |  | > 20 | 55 |  | 
Cc1cc(F)c2[nH]c3c(c2c1Br)CCOC3(CC(=O)O)C(C)C (stereo not drawn) [Example 166, (5-bromo-8-fluoro-1-isopropyl-6-methyl-1,3,4,9-tetrahydropyrano[3,4-b]indol-1-yl)acetic acid] |  | 3.7 | 55 |  | 
CCC[C@@]1(CC(=O)O)OCCc2c1[nH]c1c(F)ccc(C#N)c21 [Example 6, [(S)-5-cyano-8-fluoro-1-propyl-1,3,4,9-tetrahydropyrano[3,4-b]indol-1-yl]acetic acid] |  | 5.7 |  |  | 
Cc1cc(F)c(C#N)c2c3c([nH]c12)C(CC(=O)O)(C(C)C)OCC3 (stereo not drawn) [Example 207, (5-cyano-6-fluoro-1-isopropyl-8-methyl-1,3,4,9-tetrahydropyrano[3,4-b]indol-1-yl)acetic acid] |  | 0.58 | 76 |  | 
CC1(CC(=O)O)OCCc2c1[nH]c1c(Cl)cc(Cl)cc21 (stereo not drawn) [Example 99, (6,8-dichloro-1-methyl-1,3,4,9-tetrahydropyrano[3,4-b]indol-1-yl)acetic acid] |  | > 20 | 32 |  | 
CCCCC1(CC(=O)O)OCCc2c1[nH]c1c(Cl)cc(Cl)cc21 (stereo not drawn) [Example 103, (1-butyl-6,8-dichloro-1,3,4,9-tetrahydropyrano[3,4-b]indol-1-yl)acetic acid] |  | 14.4 | 60 |  | 
O=C(O)CC1(c2ccc(C(=O)O)cc2)OCCc2c1[nH]c1c(Cl)cc(Cl)cc21 (stereo not drawn) [Example 106, 4-[1-(carboxymethyl)-6,8-dichloro-1,3,4,9-tetrahydropyrano[3,4-b]indol-1-yl]benzoic acid] |  | 2.3 | 71 |  | 
O=C(O)CC1(c2ccc(C(=O)O)cc2)OCCc2c1[nH]c1ccc(Cl)c(Cl)c21 (stereo not drawn) [Example 113, 4-[1-(carboxymethyl)-5,6-dichloro-1,3,4,9-tetrahydropyrano[3,4-b]indol-1-yl]benzoic acid] |  | 0.26 |  | 35 | 
CCCC1(CC(=O)O)OCCc2c1[nH]c1c(F)ccc(-c3cccc(N)c3)c21 (stereo not drawn) [Example 151, [5-(3-aminophenyl)-8-fluoro-1-propyl-1,3,4,9-tetrahydropyrano[3,4-b]indol-1-yl]acetic acid] |  | > 20 | 34 |  | 
N#Cc1cccc2[nH]c3c(c12)CCOC3(CC(=O)O)c1ccoc1 (stereo not drawn) [Example 61, [5-cyano-1-(3-furyl)-1,3,4,9-tetrahydropyrano[3,4-b]indol-1-yl]acetic acid] |  | > 20 | 18 |  | 
CCCC1(CC(=O)O)OCCc2c1[nH]c1c(-c3ccc(Cl)cc3Cl)cccc21 (stereo not drawn) [Example 93, [8-(2,4-dichlorophenyl)-1-propyl-1,3,4,9-tetrahydropyrano[3,4-b]indol-1-yl]acetic acid] |  | > 20 | 64 |  | 
Cc1cc(F)c(Br)c2c3c([nH]c12)C(CC(=O)O)(C(C)C)OCC3 (stereo not drawn) [Example 202, (5-bromo-6-fluoro-1-isopropyl-8-methyl-1,3,4,9-tetrahydropyrano[3,4-b]indol-1-yl)acetic acid] |  | 2.9 | 82 |  | 
CCCCC1(CC(=O)O)OCCc2c1[nH]c1c(C)cc(F)c(Br)c21 (stereo not drawn) [Example 203, (5-bromo-1-butyl-6-fluoro-8-methyl-1,3,4,9-tetrahydropyrano[3,4-b]indol-1-yl)acetic acid] |  | 0.19 | 94 |  | 
CCCCC1(CC(=O)O)OCCc2c1[nH]c1c(Cl)ccc(Cl)c21 (stereo not drawn) [Example 67, (1-butyl-5,8-dichloro-1,3,4,9-tetrahydropyrano[3,4-b]indol-1-yl)acetic acid] |  | 0.76 | 78 |  | 
CCCC1(CC(=O)O)OCCc2c1n(C)c1c(Cl)ccc(Cl)c21 (stereo not drawn) [Example 232, (5,8-dichloro-9-methyl-1-propyl-1,3,4,9-tetrahydropyrano[3,4-b]indol-1-yl)acetic acid] |  | 7.6 |  |  | 

Molecule | HCV pol % inh at 20 μM (Table 1A, 20 μM compound) [%] | IC50 [1] [µM] | inhibition at 20 µM (Table 1A, 20 μM compound) [%] | inhibition at 20 µM [%] | IC50 (Table 1B, read-out: BK IC50) [µM]
C/C=C/CCC1(CC(=O)O)OCCc2c1[nH]c1c(F)ccc(F)c21 (stereo not drawn) [Example 127, {5,8-difluoro-1-[(3E)-pent-3-enyl]-1,3,4,9-tetrahydropyrano[3,4-b]indol-1-yl}acetic acid] |  | > 20 | 24 |  | 
C/C=C/CCC1(CC(=O)O)OCCc2c1[nH]c1c(Br)cccc21 (stereo not drawn) [Example 85, {8-bromo-1-[(3E)-pent-3-enyl]-1,3,4,9-tetrahydropyrano[3,4-b]indol-1-yl}acetic acid] |  | > 20 | 18 |  | 
CCCC1(CC(=O)O)OCCc2c1[nH]c1cccc(Cl)c21 (stereo not drawn) [Example 14, (5-Chloro-1-propyl-1,3,4,9-tetrahydropyrano[3,4-b]indol-1-yl)acetic acid] |  | 11 | 75 |  | 
CCCCC1(CC(=O)O)OCCc2c1[nH]c1c(Cl)ccc(C(F)(F)F)c21 (stereo not drawn) [Example 133, [1-butyl-8-chloro-5-(trifluoromethyl)-1,3,4,9-tetrahydropyrano[3,4-b]indol-1-yl]acetic acid] |  | 0.7 | 88 |  | 
CCCC1(CC(=O)O)OCCc2c1[nH]c1c(Cl)cc(C)c(C#N)c21 (stereo not drawn) [Example 183, (8-chloro-5-cyano-6-methyl-1-propyl-1,3,4,9-tetrahydropyrano[3,4-b]indol-1-yl)acetic acid] |  | 0.59 | 88 |  | 
O=C(O)CC1(c2ccccc2F)OCCc2c1[nH]c1c(Cl)ccc(Cl)c21 (stereo not drawn) [Example 56, [5,8-dichloro-1-(2-fluorophenyl)-1,3,4,9-tetrahydropyrano[3,4-b]indol-1-yl]acetic acid] |  | > 20 | 3 |  | 
CCCC1(CC(=O)O)OCCc2c1[nH]c1c(C)ccc(C(N)=O)c21 (stereo not drawn) [Example 226, (5-carbamoyl-8-Methyl-1-propyl-1,3,4,9-tetrahydropyrano[3,4-b]indol-1-yl)acetic acid] |  | > 20 |  |  | 
C=CCn1c2c(c3c(Cl)ccc(Cl)c31)CCOC2(CCC)CC(=O)O (stereo not drawn) [Example 233, (9-allyl-5,8-dichloro-1-propyl-1,3,4,9-tetrahydropyrano[3,4-b]indol-1-yl)acetic acid] |  | > 20 |  |  | 
CC1(CC(=O)O)OCCc2c1[nH]c1cc(Cl)cc(Cl)c21 (stereo not drawn) [Example 114, (5,7-dichloro-1-methyl-1,3,4,9-tetrahydropyrano[3,4-b]indol-1-yl)acetic acid] |  | > 20 | 57 |  | 
O=C(O)CC1(c2ccccc2)OCCc2c1[nH]c1cccc(Cl)c21 (stereo not drawn) [Example 17, (5-chloro-1-phenyl-1,3,4,9-tetrahydropyrano[3,4-b]indol-1-yl)acetic acid] |  | > 20 | < 5 |  | 
CCCC1(CC(=O)O)OCCc2c1[nH]c1c(F)ccc(I)c21 (stereo not drawn) [Example 215, (8-fluoro-5-iodo-1-propyl-1,3,4,9-tetrahydropyrano[3,4-b]indol-1-yl)acetic acid] |  | 0.32 | 86 |  | 
CCCC1(CC(=O)O)OCCc2c1[nH]c1cccc(-c3ccc(Br)cc3)c21 (stereo not drawn) [Example 41, [5-(4-bromophenyl)-1-propyl-1,3,4,9-tetrahydropyrano[3,4-b]indol-1-yl]acetic acid] |  | > 20 | 13 |  | 
C/C=C/CCC1(CC(=O)O)OCCc2c1[nH]c1c(Cl)cc(C)c(C#N)c21 (stereo not drawn) [Example 186, {8-chloro-5-cyano-6-methyl-1-[(3E)-pent-3-enyl]-1,3,4,9-tetrahydropyrano[3,4-b]indol-1-yl}acetic acid] |  | > 5 | 2 |  | 
CCCC1(CC(=O)O)OCCc2c1[nH]c1cccc(-c3ccccc3)c21 (stereo not drawn) [Example 31, (5-phenyl-1-propyl-1,3,4,9-tetrahydropyrano[3,4-b]indol-1-yl)acetic acid] |  | > 20 | 12 |  | 
CCC[C@]1(C(=O)O)OCCc2c1[nH]c1c(F)ccc(C#N)c21 [Example 344, (1S)-(5-cyano-8-fluoro-1-propyl-1,3,4,9-tetrahydropyrano[3,4-b]indol-1-yl)carboxylic acid] |  |  |  |  | 0.7
Cc1ccc(F)c2c3c([nH]c12)C(CC(=O)O)(c1ccccc1)OCC3 (stereo not drawn) [Example 146, (5-fluoro-8-methyl-1-phenyl-1,3,4,9-tetrahydropyrano[3,4-b]indol-1-yl)acetic acid] |  | > 20 | 45 |  | 
CCCCC1(CC(=O)O)OCCc2c1[nH]c1c(F)cc(F)c(C#N)c21 (stereo not drawn) [Example 196, (1-butyl-5-cyano-6,8-difluoro-1,3,4,9-tetrahydropyrano[3,4-b]indol-1-yl)acetic acid] |  | 1.2 | 77 |  | 
CCCC1(CC(=O)O)OCCc2c1[nH]c1cccc(-c3ccc(SC)cc3)c21 (stereo not drawn) [Example 46, (5-[4-(methylthio)phenyl]-1-propyl-1,3,4,9-tetrahydropyrano[3,4-b]indol-1-yl)acetic acid] |  | > 20 | 15 |  | 
